Reference: the supplement of paper PMC10307832

Experiments:
Test in all cases: relative viability (nuclei count vs DMSO), 5 days (fraction); higher = more cells survive
201T = test system: 201T
In short: (§1)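 Each reported value is a median over duplicate plates. It expresses relative viability: treated-well nuclei count divided by vehicle-well nuclei count. Lung cancer cell lines in 1536-well plates were dosed by pin tool a day after seeding, alone with one drug or with a fixed anchor-drug dose plus five library-drug doses (not always all listed) in √10 steps, and nuclei were counted after 5 days.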

ABC-1 = test system: ABC-1
In short: as §1

CAL-12T = test system: CAL-12T
In short: as §1

COR-L23 = test system: COR-L23
In short: as §1

HCC-44 = test system: HCC-44
In short: as §1

HOP-62 = test system: HOP-62
In short: as §1

LC-2-ad = test system: LC-2-ad
In short: as §1

LCLC-103H = test system: LCLC-103H
In short: as §1

NCI-H1355 = test system: NCI-H1355
In short: as §1

NCI-H1395 = test system: NCI-H1395
In short: as §1

NCI-H1651 = test system: NCI-H1651
In short: as §1

NCI-H1666 = test system: NCI-H1666
In short: as §1

NCI-H1993 = test system: NCI-H1993
In short: as §1

NCI-H2085 = test system: NCI-H2085
In short: as §1

NCI-H2170 = test system: NCI-H2170
In short: as §1

NCI-H2228 = test system: NCI-H2228
In short: as §1

NCI-H2347 = test system: NCI-H2347
In short: as §1

NCI-H23 = test system: NCI-H23
In short: as §1

NCI-H322M = test system: NCI-H322M
In short: as §1

NCI-H520 = test system: NCI-H520
In short: as §1

NCI-H647 = test system: NCI-H647
In short: as §1

NCI-H661 = test system: NCI-H661
In short: as §1

NCI-H838 = test system: NCI-H838
In short: as §1

## O=c1[nH]c2ccccc2n1C1CCN(CCCC(c2ccc(F)cc2)c2ccc(F)cc2)CC1 [Pimozide] + O=C(CCCCCCC(=O)Nc1ccccc1)NO [Vorinostat] (partner 1 µM)
201T; first compound 0.08 µM
  relative viability: 0.881
201T; first compound 0.253 µM
  relative viability: 0.964
201T; first compound 0.8 µM
  relative viability: 0.863
201T; first compound 2.53 µM
  relative viability: 0.942
201T; first compound 8 µM
  relative viability: 0.72
ABC-1; first compound 0.08 µM
  relative viability: 1.3
ABC-1; first compound 0.253 µM
  relative viability: 1.15
ABC-1; first compound 0.8 µM
  relative viability: 0.884
ABC-1; first compound 2.53 µM
  relative viability: 0.908
ABC-1; first compound 8 µM
  relative viability: 0.719
CAL-12T; first compound 0.08 µM
  relative viability: 0.732
CAL-12T; first compound 0.253 µM
  relative viability: 0.896
CAL-12T; first compound 0.8 µM
  relative viability: 0.7
CAL-12T; first compound 2.53 µM
  relative viability: 0.665
CAL-12T; first compound 8 µM
  relative viability: 0.664
COR-L23; first compound 0.08 µM
  relative viability: 0.459
COR-L23; first compound 0.253 µM
  relative viability: 0.414
COR-L23; first compound 0.8 µM
  relative viability: 0.343
COR-L23; first compound 2.53 µM
  relative viability: 0.432
COR-L23; first compound 8 µM
  relative viability: 0.495
HCC-44; first compound 0.08 µM
  relative viability: 1.12
HCC-44; first compound 0.253 µM
  relative viability: 1.12
HCC-44; first compound 0.8 µM
  relative viability: 0.923
HCC-44; first compound 2.53 µM
  relative viability: 1.12
HCC-44; first compound 8 µM
  relative viability: 0.975
HOP-62; first compound 0.08 µM
  relative viability: 0.704
HOP-62; first compound 0.253 µM
  relative viability: 0.642
HOP-62; first compound 2.53 µM
  relative viability: 0.494
HOP-62; first compound 8 µM
  relative viability: 0.416
LC-2-ad; first compound 0.08 µM
  relative viability: 0.731
LC-2-ad; first compound 0.253 µM
  relative viability: 0.661
LC-2-ad; first compound 0.8 µM
  relative viability: 0.499
LC-2-ad; first compound 2.53 µM
  relative viability: 0.653
LC-2-ad; first compound 8 µM
  relative viability: 0.655
LCLC-103H; first compound 0.08 µM
  relative viability: 0.814
LCLC-103H; first compound 0.253 µM
  relative viability: 0.802
LCLC-103H; first compound 0.8 µM
  relative viability: 0.598
LCLC-103H; first compound 2.53 µM
  relative viability: 0.759
LCLC-103H; first compound 8 µM
  relative viability: 0.717
NCI-H1355; first compound 0.08 µM
  relative viability: 0.592
NCI-H1355; first compound 0.253 µM
  relative viability: 0.597
NCI-H1355; first compound 0.8 µM
  relative viability: 0.547
NCI-H1355; first compound 2.53 µM
  relative viability: 0.607
NCI-H1355; first compound 8 µM
  relative viability: 0.608
NCI-H1395; first compound 0.08 µM
  relative viability: 0.696
NCI-H1395; first compound 0.253 µM
  relative viability: 0.607
NCI-H1395; first compound 0.8 µM
  relative viability: 0.629
NCI-H1395; first compound 2.53 µM
  relative viability: 0.711
NCI-H1395; first compound 8 µM
  relative viability: 0.628
NCI-H1651; first compound 0.08 µM
  relative viability: 0.565
NCI-H1651; first compound 0.253 µM
  relative viability: 0.507
NCI-H1651; first compound 0.8 µM
  relative viability: 0.599
NCI-H1651; first compound 2.53 µM
  relative viability: 0.578
NCI-H1651; first compound 8 µM
  relative viability: 0.593
NCI-H1666; first compound 0.08 µM
  relative viability: 1.09
NCI-H1666; first compound 0.253 µM
  relative viability: 0.905
NCI-H1666; first compound 0.8 µM
  relative viability: 0.924
NCI-H1666; first compound 2.53 µM
  relative viability: 0.991
NCI-H1666; first compound 8 µM
  relative viability: 1.02
NCI-H1993; first compound 0.08 µM
  relative viability: 0.502
NCI-H1993; first compound 0.253 µM
  relative viability: 0.966
NCI-H1993; first compound 0.8 µM
  relative viability: 0.68
NCI-H1993; first compound 2.53 µM
  relative viability: 0.857
NCI-H1993; first compound 8 µM
  relative viability: 0.533
NCI-H2085; first compound 0.08 µM
  relative viability: 0.77
NCI-H2085; first compound 0.253 µM
  relative viability: 0.861
NCI-H2085; first compound 0.8 µM
  relative viability: 0.723
NCI-H2085; first compound 2.53 µM
  relative viability: 0.802
NCI-H2085; first compound 8 µM
  relative viability: 0.741
NCI-H2170; first compound 0.08 µM
  relative viability: 0.717
NCI-H2170; first compound 0.253 µM
  relative viability: 0.848
NCI-H2170; first compound 0.8 µM
  relative viability: 0.808
NCI-H2170; first compound 2.53 µM
  relative viability: 0.793
NCI-H2170; first compound 8 µM
  relative viability: 0.771
NCI-H2228; first compound 0.08 µM
  relative viability: 0.623
NCI-H2228; first compound 0.253 µM
  relative viability: 0.668
NCI-H2228; first compound 0.8 µM
  relative viability: 0.668
NCI-H2228; first compound 2.53 µM
  relative viability: 0.677
NCI-H2228; first compound 8 µM
  relative viability: 0.318
NCI-H2347; first compound 0.08 µM
  relative viability: 0.685
NCI-H2347; first compound 0.253 µM
  relative viability: 0.594
NCI-H2347; first compound 0.8 µM
  relative viability: 0.537
NCI-H2347; first compound 2.53 µM
  relative viability: 0.537
NCI-H2347; first compound 8 µM
  relative viability: 0.492
NCI-H23; first compound 0.08 µM
  relative viability: 0.573
NCI-H23; first compound 0.253 µM
  relative viability: 0.551
NCI-H23; first compound 0.8 µM
  relative viability: 0.49
NCI-H23; first compound 2.53 µM
  relative viability: 0.575
NCI-H23; first compound 8 µM
  relative viability: 0.52
NCI-H322M; first compound 0.08 µM
  relative viability: 0.885
NCI-H322M; first compound 0.253 µM
  relative viability: 0.844
NCI-H322M; first compound 0.8 µM
  relative viability: 0.88
NCI-H322M; first compound 2.53 µM
  relative viability: 0.885
NCI-H322M; first compound 8 µM
  relative viability: 0.786
NCI-H520; first compound 0.08 µM
  relative viability: 0.727
NCI-H520; first compound 0.253 µM
  relative viability: 0.663
NCI-H520; first compound 0.8 µM
  relative viability: 0.671
NCI-H520; first compound 2.53 µM
  relative viability: 0.685
NCI-H520; first compound 8 µM
  relative viability: 0.65
NCI-H647; first compound 0.08 µM
  relative viability: 0.5
NCI-H647; first compound 0.253 µM
  relative viability: 0.577
NCI-H647; first compound 0.8 µM
  relative viability: 0.621
NCI-H647; first compound 2.53 µM
  relative viability: 0.268
NCI-H647; first compound 8 µM
  relative viability: 0.431
NCI-H661; first compound 0.08 µM
  relative viability: 0.667
NCI-H661; first compound 0.253 µM
  relative viability: 0.741
NCI-H661; first compound 0.8 µM
  relative viability: 0.723
NCI-H661; first compound 2.53 µM
  relative viability: 0.699
NCI-H661; first compound 8 µM
  relative viability: 0.64
NCI-H838; first compound 0.08 µM
  relative viability: 0.745
NCI-H838; first compound 0.253 µM
  relative viability: 0.716
NCI-H838; first compound 0.8 µM
  relative viability: 0.663
NCI-H838; first compound 2.53 µM
  relative viability: 0.702
NCI-H838; first compound 8 µM
  relative viability: 0.705
